Assay results as given in PubChem BioAssay (NCI).
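96-well plates; 48 h exposure; 5 concentrations. Endpoints by linear interpolation between flanking doses. Not reached: highest tested concentration assigned. The concentration for 50% growth inhibition is given as GI50. The concentration for full growth arrest is given as TGI.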

How the values were obtained:
Assay in all cases: NCI tumour cell line growth inhibition, 48 h
SK-MEL-5 melanoma = test system: SK-MEL-5 melanoma
HOP-92 NSCLC = test system: HOP-92 NSCLC
RPMI-8226 leukemia = test system: RPMI-8226 leukemia
NCI/ADR-RES ovarian = test system: NCI/ADR-RES ovarian
UACC-257 melanoma = test system: UACC-257 melanoma
IGROV1 ovarian = test system: IGROV1 ovarian
OVCAR-8 ovarian = test system: OVCAR-8 ovarian
HCT-15 colon = test system: HCT-15 colon
KM12 colon = test system: KM12 colon
SNB-75 CNS = test system: SNB-75 CNS

| SMILES | GI50 (SK-MEL-5 melanoma) [µM] | TGI (SK-MEL-5 melanoma) [µM] | GI50 (HOP-92 NSCLC) [µM] | TGI (HOP-92 NSCLC) [µM] | GI50 (RPMI-8226 leukemia) [µM] | TGI (RPMI-8226 leukemia) [µM] | GI50 (NCI/ADR-RES ovarian) [µM] | TGI (NCI/ADR-RES ovarian) [µM] | GI50 (UACC-257 melanoma) [µM] | TGI (UACC-257 melanoma) [µM] | GI50 (IGROV1 ovarian) [µM] | TGI (IGROV1 ovarian) [µM] | GI50 (OVCAR-8 ovarian) [µM] | TGI (OVCAR-8 ovarian) [µM] | GI50 (HCT-15 colon) [µM] | TGI (HCT-15 colon) [µM] | GI50 (KM12 colon) [µM] | TGI (KM12 colon) [µM] | GI50 (SNB-75 CNS) [µM] | TGI (SNB-75 CNS) [µM] |
| --- | --- | --- | --- | --- | --- | --- | --- | --- | --- | --- | --- | --- | --- | --- | --- | --- | --- | --- | --- | --- |
| C#CCN(c1ccc(C(=O)N[C@@H](CCC(=O)N[C@H](CCC(=O)O)C(=O)O)C(=O)O)cc1)C1CCc2cc3nc(CO)[nH]c(=O)c3cc21 (stereo not given in full) | 10 | > 100 | > 53.4 | > 100 | 88 | > 100 | 8.58 | > 100 | > 100 | > 100 | > 100 | > 100 | 5.81 | > 100 | > 29.9 | > 100 | > 100 | > 100 | > 100 | > 100 |
| Clc1ccccc1-c1nnc2c(Cc3ccccc3)nc3ccccc3n12 | 3.67 | > 100 | 3.45 | 41.8 | 5.64 | > 100 | 12.7 | > 100 | 33.3 | > 100 | 44 | > 100 | 7.21 | > 100 | 1.56 | > 100 | 13.1 | > 100 | 3.78 | 40.3 |
| Cn1cc(-c2cnn3c(N)c(Br)c(C4CCCNC4)nc23)cn1 (stereo not given) | 3.64 | 18.7 | 5.51 | > 68.5 | 4.7 | 27.2 | 8.36 | > 100 | 17.8 | 60.6 | 6.72 | > 100 | 5.87 | > 100 | 14.2 | > 79.9 | 3.69 | 44.7 | 0.464 | 39.1 |
| Cn1c2c(c3c(Cl)nncc31)Cc1ccccc1-2 | 10.3 | 24.9 | 9.47 | 43 | 18.1 | > 100 | 16.3 | 44.5 | 48.7 | > 100 | 48.9 | > 100 | 25.5 | > 100 | 22.2 | > 100 | 32.8 | > 100 | 76.8 | > 100 |
| O=C1C=CC(=O)c2c(O)c3c(c(O)c21)C[C@H](O)[C@H](O)[C@@H]3O |  | 3.18 |  | 2.87 |  | 4.85 |  | 8.16 |  | 2.64 |  | 6.92 |  | 6.59 |  | 7.19 |  | 16.8 |  | 7.99 |
| CCCCCCCC/C=C/CCCCCCCC1=NC(C)(C)CN1CCO | 2.87 | 8.4 | 1.43 | 7.45 | 2.02 | 4.31 | 3.87 | 13.9 | 2 | 3.81 | 1.51 | 2.9 | 2.29 | 4.74 | 1.58 | 3.16 | 1.69 | 3.06 | 1.83 | 4.26 |
| c1ccc(CNCCN(CCNCc2ccccn2)Cc2ccc3ccccc3c2)nc1 | 1.76 | 3.16 | 1.79 | 4.64 | 2.67 | 6.65 | 2.4 | 6.96 | 2.16 | 4.69 | 2.3 | 7.5 | 2.27 | 6.29 | 1.16 | 5.01 | 2.14 | 4.85 | 2.03 | 9.98 |
| Nc1ccccc1C(=O)CCC1C(=O)NC(=S)NC1=O |  | > 100 |  | > 100 |  | > 100 |  | > 100 |  | > 100 |  | > 100 |  | > 100 |  | > 100 |  | > 100 |  | > 89.6 |
